Data reported in the NIST ThermoML archive (doi:10.1021/je3002305).
± gives the expanded uncertainty stated by the source.

assay: refractive index (Na D-line) (dimensionless); conditions: 293.1 K; 101.33 kPa; Liquid; Standard Abbe refractometry

| Compound | refractive index |
| --- | --- |
| CCCCn1cc[n+](C)c1.F[P-](F)(F)(F)(F)F [1-butyl-3-methylimidazolium hexafluorophosphate] | 1.4101 ± 0.0008 |
| CCCCCCn1cc[n+](C)c1.F[P-](F)(F)(F)(F)F [1-hexyl-3-methylimidazolium hexafluorophosphate] | 1.4176 ± 0.0008 |
| CCCCCCCC[n+]1ccn(C)c1.F[P-](F)(F)(F)(F)F [1-octyl-3-methylimidazolium hexafluorophosphate] | 1.4231 ± 0.0008 |
| CCCCc1ccccc1 [butylbenzene] | 1.4894 ± 0.0008 |
| CCCCCCCCCCCC [dodecane] | 1.4221 ± 0.0008 |
